Test results taken from US7803792B2, “Quaternary ammonium compounds” (Asahi Kasei Pharma Corporation, priority 2002, dated 2010).

Assays:
[1] = test system: bile acid loaded rats without partial ligation surgery; assay: Cholestasis-caused hepatopathy model, bile acid loading without partial ligation, protocol B (Test Example 5); assay type: in vivo, rat; conditions: 0.1 mg/kg twice a day 3.5 days, distilled water, average ± standard error
Protocol: “Cholestasis-Caused Hepatopathy” Model (Bile Duct Partial Ligation Model)
The “cholestasis-caused hepatopathy” model by partial ligation surgery of bile duct in this test example was handled by referring to the method by Kanno et al. [Kanzo (Liver) 43 Suppl (1): A126, 2002].
That is, the abdomen of a 7 to 10 weeks old SD (IGS) male rat was cut open under anesthesia with pentobarbital and partial ligation surgery of the bile duct was carried out. A blood sample was taken from the femoral vein before the surgery and this was taken as pre-administration value. The test compound and 200 mg/kg of bile acid were forcibly orally administered twice a day for 3.5 days from the next day of the surgery (protocol A). The test compound and 200 mg/kg of bile acid were forcibly orally administered twice a day for 3.5 days without carrying out the partial ligation surgery (protocol B). In both the cases, the test compound was dissolved or suspended in distilled water or an aqueous solution of 1% HCO60 (manufactured by NIPPON CHEMICALS COMPANY, LTD.). […] Moreover, to consider the influence of the surgery, a pseudo operation group (a Sham group) was established as necessary. After 6 hours from the administration of the drug on the last day of the test, a blood sample was taken from the abdominal aorta and AST (GOT), ALT (GPT), and ALP in the blood were measured by using a measurement kit (GOTII-HA TEST WAKO, GPTII-HA TEST WAKO, and ALKALINE PHOSPHER-HA TEST WAKO respectively, all manufactured by WAKO PURE CHEMICAL […], LTD.) with an auto analyzer (NITTECH ANALYZER SUPER Z818).

[2] = test system: Na+ dependent amino acid transporter; assay: In vitro assay on Na+ dependent amino acid transporter using Cos 7 cells (Test Example 10); assay type: cell-based; conditions: [3H] alanine 8 μM, 37° C., 60 minutes, read-out: IC50 (μM) against alanine transporter
Protocol: In Vitro Assay of Effects of Compounds on Na^+ Dependent Amino Acid Transporter and Na^+ Dependent Water-Soluble Vitamin Transporter Using Cos 7 Cells
In this test example, the in vitro assays of the compound on various transporters using Cos 7 cells were carried out according to the method described in Published Translation of Japanese Patent Application No.10-503830.
That is, […] of Cos 7 cells were inoculated on a 24-well cell plate. Two days later, the cells were washed once with an assay buffer, Hank's buffer solution containing 25 mM glucose and with 10 mM HEPES (ph 7.4), and then the buffer was replaced by an assay buffer to which the test compound was added. After adding to this, [^3H] alanine (trade name; NET-348, manufactured by DAIICHI CHEMICAL CO., LTD.), [^3H] leucine (trade name: NET-460, manufactured by DAIICHI CHEMICAL CO., LTD.), [^3H] phenylalanine (trade name: MT903, MORAVEK), [^3H] methionine (trade name: MT862, MORAVEK), [^3H] lysine (trade name: MT909, MORAKEK), or [^3H] choline (trade name: TRK593, […] BIOSCIENCES CO., LTD.) to a final concentration of 8 μM, the mixture was incubated at 37° C. for 60 minutes to allow Cos 7 cells to incorporate them. […] Measurement of the radioactivity was carried out by introducing the lyzate in 4 ml of liquid scintillation cocktail, stirring the mixture well, and then measuring on a liquid scintillation counter. […]

Work on `CCCCC1(CCCC)CS(=O)(=O)c2ccc(N(C)C)cc2C(c2cccc(NC(=S)CCCCC[N+]34CCC(CC3)CC4)c2)N1.[Br-]` (stereo not shown) [Example 1, 1-{5-[3-(3,3-Dibutyl-7-dimethylamino-1,1-dioxo-2,3,4,5-tetrahydro-1,4-benzothiazepin-5-yl)phenylthiocarbamoyl]pentyl}-1-azoniabicyclo[2.2.2]octane bromide] yielded an ALT ([1]; control 82 ± 17) of 53 ± 6 IU/L, an AST ([1]; control 157 ± 35) of 100 ± 2 IU/L and an ALP ([1]; control 593 ± 77) of 453 ± 50 IU/L. The IC50 [2] was 33 µM.
